Test results published in patent publication US20210330611A1, “THERAPY FOR NEUROLOGICAL DISEASES/DISORDERS” (priority 2020, published 2021).
Where a name gives a salt, the structure may show the parent alone. Read-outs that look alike come from different tables or passages of the source.

Tests used:
[1] = system: fibrin-induced microglia activation; assay: Image-based assay of fibrin-induced microglia activation (HTS and dose response); assay type: cell-based, rat; conditions: for inhibition at 10 µM: Rattus norvegicus, Microglia, read-out: Fibrin % inhibition
[2] = system: LPS-induced microglia activation; assay: Image-based assay of LPS-induced microglia activation (HTS and dose response); assay type: cell-based, rat
[3] = system: fibrin- and LPS-induced microglia activation; assay: cells; assay type: cell-based, rat
primary rat microglia [4] = system: primary rat microglia;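 on Fibrin % cell toxicity: share of dead cells sized under 150 µm2 at 10 µM in fibrin-stimulated microglia HTS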
primary rat microglia [5] = system: primary rat microglia; remark: listed apart in the source;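 on Fibrin % cell toxicity: share of dead cells sized under 150 µm2 at 10 µM in fibrin-stimulated microglia HTS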
[6] = primary microglia HTS, fibrin stimulation, cell size >800 μm2 as marker of activation
[7] = classification by fibrin and LPS inhibition in HTS
[8] = primary microglia HTS, fibrin stimulation, activation = cell size >800 μm2
[9] = Rattus norvegicus, Microglia, 48 h, primary microglia HTS, LPS stimulation, activation = cell size >800 μm2; read-out: LPS % inhibition
[10] = quadrant by fibrin and LPS inhibition in HTS of 1907 compounds
[11] = primary HTS, 10 μM, fibrin-stimulated primary microglia
[12] = Rattus norvegicus, Microglia, read-out: LPS % inhibition
[13] = Rattus norvegicus, Microglia, 48 h, read-out: LPS % inhibition
[14] = primary microglia HTS, fibrin stimulation, increased cell size (>800 μm^2) as marker of activation
[15] = Rattus norvegicus, Microglia, 48 h, primary microglia HTS, LPS stimulation; increased cell size (>800 μm^2) as marker of activation; read-out: LPS % inhibition
[16] = primary microglia HTS, fibrin stimulation, compounds at 10 μM
[17] = Rattus norvegicus, Microglia, primary microglia HTS, LPS stimulation, compounds at 10 μM; read-out: LPS % inhibition
[18] = quadrant by fibrin and LPS inhibition, HTS at 10 μM

## CN(C)CCC(c1ccccc1)c1ccccn1 (centres unmarked) [Pheniramine]
[1]; [6]
  inhibition at 10 µM: -9%
[2]; Rattus norvegicus, Microglia, 48 h; read-out: LPS % inhibition
  inhibition at 10 µM: 1%
[3]; [7]
  Quadrant (FIG. 5b): Q4
Primary rat microglia [4]; rat
  Fibrin % cell toxicity: 1%
Primary rat microglia [5]; rat
  LPS % cell toxicity: 0%

## COC1=C(OC)C(=O)C(CCCCCCCCCCO)=C(C)C1=O [Idebenone]
[1]; [8]
  inhibition at 10 µM: -24%
[2]; [9]
  inhibition at 10 µM: 2%
[3]; [10]
  Quadrant (FIG. 5b): Q4
Primary rat microglia [4]; rat
  Fibrin % cell toxicity: 1%
Primary rat microglia [5]; rat
  LPS % cell toxicity: 0%

## [H-].[Li+] [Lithium hydride]
[1]
  Fibrin % inhibition: −6%
[2]
  LPS % inhibition: 20%
[3]
  Quadrant (FIG. 5b): Q4
Primary rat microglia [4]
  Fibrin % cell toxicity: 1%
Primary rat microglia [5]
  LPS % cell toxicity: 0%

## CCCCCOC(=O)Nc1nc(=O)n([C@@H]2O[C@H](C)[C@@H](O)[C@H]2O)cc1F [Capecitabine]
[1]; [11]
  inhibition at 10 µM: 43%
[2]; Rattus norvegicus, Microglia, primary HTS, 10 μM, LPS-stimulated primary microglia; read-out: LPS % inhibition
  inhibition at 10 µM: 25%
[3]; primary HTS, 10 μM
  Quadrant (FIG. 5b): Q4
Primary rat microglia [4]; rat
  Fibrin % cell toxicity: 1%
Primary rat microglia [5]; rat
  LPS % cell toxicity: 1%

## [O-][n+]1ccccc1[S-].[O-][n+]1ccccc1[S-].[Zn+2] [Pyrithione Zinc]
[1]; 10 µM
  Fibrin % inhibition: 109%
[2]; 10 µM
  LPS % inhibition: 127%
[3]
  Quadrant (FIG. 5b): Q2
Primary rat microglia [4]
  Fibrin % cell toxicity: 86%
Primary rat microglia [5]
  LPS % cell toxicity: 87%

## Cl[C@H]1[C@H](Cl)[C@@H](Cl)[C@@H](Cl)[C@H](Cl)[C@H]1Cl [Lindane]
[1]; [8]
  inhibition at 10 µM: 42%
[2]; [9]
  inhibition at 10 µM: 11%
[3]; [10]
  Quadrant (FIG. 5b): Q4
Primary rat microglia [4]; rat
  Fibrin % cell toxicity: 0%
Primary rat microglia [5]; rat
  LPS % cell toxicity: 0%

## CC=CC1=C(C(=O)O)N2C(=O)[C@@H](NC(=O)[C@H](N)c3ccc(O)cc3)[C@H]2SC1 [Cefprozil]
[1]; [11]
  Fibrin % inhibition: 3%
[2]; primary HTS, 10 μM, LPS-stimulated primary microglia
  LPS % inhibition: 14%
[3]; primary HTS, 10 μM
  Quadrant (FIG. 5b): Q4
Primary rat microglia [4]
  Fibrin % cell toxicity: 0%
Primary rat microglia [5]
  LPS % cell toxicity: 0%

## Clc1ccccc1C(c1ccccc1)(c1ccccc1)n1ccnc1 [Clotrimazole]
[1]
  inhibition at 10 µM: -13%
[2]; [12]
  inhibition at 10 µM: 13%
[3]
  Quadrant (FIG. 5b): Q4
Primary rat microglia [4]; rat
  Fibrin % cell toxicity: 1%
Primary rat microglia [5]; rat
  LPS % cell toxicity: 0%

## Modaline Sulfate
[1]
  Fibrin % inhibition: −9%
[2]
  LPS % inhibition: 25%
[3]
  Quadrant (FIG. 5b): Q4
Primary rat microglia [4]
  Fibrin % cell toxicity: 1%
Primary rat microglia [5]
  LPS % cell toxicity: 0%

## CCCN[C@H]1CCc2nc(N)sc2C1 [Pramipexole]
[1]
  inhibition at 10 µM: -19%
[2]; [13]
  inhibition at 10 µM: 1%
[3]
  Quadrant (FIG. 5b): Q4
Primary rat microglia [4]; rat
  Fibrin % cell toxicity: 1%
Primary rat microglia [5]; rat
  LPS % cell toxicity: 0%

## CC(C)NCC(O)c1cc(O)cc(O)c1 (centres unmarked) [Orciprenaline]
[1]; [14]
  inhibition at 10 µM: 15%
[2]; [15]
  inhibition at 10 µM: 25%
[3]; [10]
  Quadrant (FIG. 5b): Q4
Primary rat microglia [4]; rat
  Fibrin % cell toxicity: 0%
Primary rat microglia [5]; rat
  LPS % cell toxicity: 0%

## COc1ccc(CN(CCN(C)C)c2ccccn2)cc1 [Mepyramine]
[1]; [14]
  inhibition at 10 µM: -11%
[2]; [15]
  inhibition at 10 µM: 13%
[3]; [10]
  Quadrant (FIG. 5b): Q4
Primary rat microglia [4]; rat
  Fibrin % cell toxicity: 0%
Primary rat microglia [5]; rat
  LPS % cell toxicity: 0%

## NNc1nncc2ccccc12 [Hydralazine]
[1]
  inhibition at 10 µM: -13%
[2]; [13]
  inhibition at 10 µM: 22%
[3]
  Quadrant (FIG. 5b): Q4
Primary rat microglia [4]; rat
  Fibrin % cell toxicity: 1%
Primary rat microglia [5]; rat
  LPS % cell toxicity: 0%

## CNCCCC12CCC(c3ccccc31)c1ccccc12 [Maprotiline hydrochloride, reference compound]
[1]; hydrochloride
  Fibrin % inhibition: 31%
[2]; [13]
  inhibition at 10 µM: 67%
[3]
  Activity: fib/LPS
  Quadrant (FIG. 5b): Q1
Primary rat microglia [4]; rat
  Fibrin % cell toxicity: 1%
Primary rat microglia [5]; rat
  LPS % cell toxicity: 1%

## COC(=O)[C@H](c1ccccc1Cl)N1CCc2sccc2C1 [Clopidogrel]
[1]
  inhibition at 10 µM: -24%
[2]; [12]
  inhibition at 10 µM: 7%
[3]
  Quadrant (FIG. 5b): Q4
Primary rat microglia [4]; rat
  Fibrin % cell toxicity: 1%
Primary rat microglia [5]; rat
  LPS % cell toxicity: 0%

## O=C(OCC(O)CO)c1ccccc1Nc1ccnc2cc(Cl)ccc12 (centres unmarked) [Glafenine]
[1]; [8]
  inhibition at 10 µM: 8%
[2]; [9]
  inhibition at 10 µM: 18%
[3]; [10]
  Quadrant (FIG. 5b): Q4
Primary rat microglia [4]; rat
  Fibrin % cell toxicity: 1%
Primary rat microglia [5]; rat
  LPS % cell toxicity: 0%

## NC[C@H]1O[C@H](O[C@H]2[C@H](O)[C@@H](O[C@H]3O[C@H](CO)[C@@H](O)[C@H](N)[C@H]3O)[C@H](N)C[C@@H]2N)[C@H](O)[C@@H](O)[C@@H]1O.O=S(=O)(O)O [Kanamycin Sulfate, Kanamycin A Sulfate]
[1]
  Fibrin % inhibition: −13%
[2]
  LPS % inhibition: 20%
[3]
  Quadrant (FIG. 5b): Q4
Primary rat microglia [4]
  Fibrin % cell toxicity: 0%
Primary rat microglia [5]
  LPS % cell toxicity: 1%

## CC[C@@H](CO)NC(=O)[C@@H]1C=C2c3cccc4[nH]cc(c34)C[C@H]2N(C)C1 [Methylergometrine]
[1]; [14]
  inhibition at 10 µM: -43%
[2]; [15]
  inhibition at 10 µM: 7%
[3]; [10]
  Quadrant (FIG. 5b): Q4
Primary rat microglia [4]; rat
  Fibrin % cell toxicity: 0%
Primary rat microglia [5]; rat
  LPS % cell toxicity: 0%

## CC[C@H]1[C@@H]2C[C@H]3[C@@H]4N(C)c5ccccc5[C@]45C[C@@H]([C@H]2[C@H]5O)N3[C@@H]1O [Ajmaline]
[1]; [16]
  inhibition at 10 µM: -6%
[2]; [17]
  inhibition at 10 µM: 13%
[3]; [18]
  Quadrant (FIG. 5b): Q4
Primary rat microglia [4]; rat
  Fibrin % cell toxicity: 1%
Primary rat microglia [5]; rat
  LPS % cell toxicity: 0%

## CN(C)CCOc1ccc(/C(=C(/CCCl)c2ccccc2)c2ccccc2)cc1 [Toremifene]
[1]
  inhibition at 10 µM: 14%
[2]; [12]
  inhibition at 10 µM: 19%
[3]
  Quadrant (FIG. 5b): Q4
Primary rat microglia [4]; rat
  Fibrin % cell toxicity: 1%
Primary rat microglia [5]; rat
  LPS % cell toxicity: 0%

## COc1cc(NS(C)(=O)=O)ccc1Nc1c2ccccc2nc2ccccc12 [Amsacrine]
[1]; [14]
  inhibition at 10 µM: 70%
[2]; [15]
  inhibition at 10 µM: 120%
[3]; [10]
  Quadrant (FIG. 5b): Q2
Primary rat microglia [4]; rat
  Fibrin % cell toxicity: 3%
Primary rat microglia [5]; rat
  LPS % cell toxicity: 54%

## CCOC(=O)[C@H](CCc1ccccc1)N[C@@H](C)C(=O)N1[C@H](C(=O)O)C[C@H]2CCCC[C@@H]21 [Trandolapril]
[1]
  inhibition at 10 µM: -5%
[2]; [12]
  inhibition at 10 µM: 15%
[3]
  Quadrant (FIG. 5b): Q4
Primary rat microglia [4]; rat
  Fibrin % cell toxicity: 1%
Primary rat microglia [5]; rat
  LPS % cell toxicity: 0%

## C=C[C@H]1C[N@@]2CC[C@H]1C[C@H]2[C@H](O)c1ccnc2ccc(OC)cc12 [Quinine]
[1]; [6]
  Fibrin % inhibition: −32%
[2]
  LPS % inhibition: −7%
[3]; [7]
  Quadrant (FIG. 5b): Q4
Primary rat microglia [4]; rat
  Fibrin % cell toxicity: 1%
Primary rat microglia [5]; rat
  LPS % cell toxicity: 0%

## NC1=NCC2c3ccccc3Cc3ccccc3N12 (centres unmarked) [Epinastine]
[1]
  inhibition at 10 µM: -38%
[2]; [12]
  inhibition at 10 µM: -15%
[3]
  Quadrant (FIG. 5b): Q4
Primary rat microglia [4]; rat
  Fibrin % cell toxicity: 1%
Primary rat microglia [5]; rat
  LPS % cell toxicity: 0%

## CC(C)(C#N)c1cc(Cn2cncn2)cc(C(C)(C)C#N)c1 [Anastrozole]
[1]; [16]
  inhibition at 10 µM: 31%
[2]; [17]
  inhibition at 10 µM: 16%
[3]; [18]
  Quadrant (FIG. 5b): Q4
Primary rat microglia [4]; rat
  Fibrin % cell toxicity: 1%
Primary rat microglia [5]; rat
  LPS % cell toxicity: 0%

## CN(C)C(=S)SSC(=S)N(C)C [Thiram]
[1]; [16]
  inhibition at 10 µM: 109%
[2]; [17]
  inhibition at 10 µM: 126%
[3]; [18]
  Quadrant (FIG. 5b): Q2
Primary rat microglia [4]; rat
  Fibrin % cell toxicity: 91%
Primary rat microglia [5]; rat
  LPS % cell toxicity: 64%

## CNCCCC1c2ccccc2C=Cc2ccccc21 [Protriptyline]
[1]
  inhibition at 10 µM: 21%
[2]; [13]
  inhibition at 10 µM: 15%
[3]
  Quadrant (FIG. 5b): Q4
Primary rat microglia [4]; rat
  Fibrin % cell toxicity: 1%
Primary rat microglia [5]; rat
  LPS % cell toxicity: 0%

## Cc1ccc(C(=O)c2ccc(CC(=O)O)n2C)cc1 [Tolmetin]
[1]; primary microglia HTS, 10 μM, fibrin-stimulated, cell size >800 μm^2 as marker of activation
  inhibition at 10 µM: 48%
[2]; Rattus norvegicus, Microglia, primary microglia HTS, 10 μM, LPS-stimulated, cell size >800 μm^2 as marker of activation; read-out: LPS % inhibition
  inhibition at 10 µM: 28%
[3]; HTS of 1907 compounds, quadrant by fibrin and LPS inhibition
  Quadrant (FIG. 5b): Q4
Primary rat microglia [4]; rat
  Fibrin % cell toxicity: 0%
Primary rat microglia [5]; rat
  LPS % cell toxicity: 0%

## CCN(CC)C(=S)SSC(=S)N(CC)CC [Disulfiram]
[1]; [14]
  inhibition at 10 µM: 114%
[2]; [15]
  inhibition at 10 µM: 131%
[3]; [10]
  Quadrant (FIG. 5b): Q2
Primary rat microglia [4]; rat
  Fibrin % cell toxicity: 90%
Primary rat microglia [5]; rat
  LPS % cell toxicity: 75%
